Laboratory results taken from patent publication US20230022235A1, “DUAL ANDROGEN RECEPTOR/AKR1C3 INHIBITORS” (The Regents of the University of California, priority 2019, published 2023).
Entries after “also recorded” stand apart in the source; their conditions may differ.

How the values were obtained:
LuCaP35CR tumors = test: LuCaP35CR PDX model in castrated SCID mice; format: in vivo
Description: The LuCaP35CR PDX model was also employed to investigate the effects of compound 1 in vivo. For this model, SCID mice were castrated and implanted with LuCaP35CR tissues. Once tumors were palpable, mice were divided into two groups: control or 20 mg/kg compound 1 administered I.P. 5 days a week for 3 weeks. Tumor volumes were measured twice weekly and mouse weights were monitored. At the end of treatment, tumors and serum were collected for assessment.

[1] = tested on: MCF-7 breast cancer cells; test: Cell number of MCF-7 breast cancer cells; format: cell-based; conditions: 48 hrs
C4-2B MDVR cells [2] = test: Cell number of enzalutamide-resistant C4-2B MDVR cells; format: cell-based; conditions: 48 hrs
Description: C4-2B MDVR cells were treated with increasing doses of compound 1 for 48 hrs.
To evaluate whether compound 1 is an effective inhibitor of anti-androgen resistant cell growth, a series of resistant cells were treated with their respective anti-androgens for 48 hrs. Enzalutamide resistant MDVR cells, abiraterone resistant AbiR cells, apalutamide resistant ApaIR cells, and darolutamide resistant DaroR cells were treated with their respective anti-androgens: enza (20 μM), abi (20 μM), apal (20 μM), darolutamide (20 μM), or compound 1 (5 μM).

AR [3] = target: T1, AR (Homo sapiens, UniProt P10275, T878A); test: DHT-stimulated AR nuclear translocation in LNCaP cells (immunofluorescent staining); format: cell-based; conditions: charcoal stripped FBS
T1 construct: endogenous in cells; host or cells: LNCaP
T1 sequence (P10275 1-920 T878A): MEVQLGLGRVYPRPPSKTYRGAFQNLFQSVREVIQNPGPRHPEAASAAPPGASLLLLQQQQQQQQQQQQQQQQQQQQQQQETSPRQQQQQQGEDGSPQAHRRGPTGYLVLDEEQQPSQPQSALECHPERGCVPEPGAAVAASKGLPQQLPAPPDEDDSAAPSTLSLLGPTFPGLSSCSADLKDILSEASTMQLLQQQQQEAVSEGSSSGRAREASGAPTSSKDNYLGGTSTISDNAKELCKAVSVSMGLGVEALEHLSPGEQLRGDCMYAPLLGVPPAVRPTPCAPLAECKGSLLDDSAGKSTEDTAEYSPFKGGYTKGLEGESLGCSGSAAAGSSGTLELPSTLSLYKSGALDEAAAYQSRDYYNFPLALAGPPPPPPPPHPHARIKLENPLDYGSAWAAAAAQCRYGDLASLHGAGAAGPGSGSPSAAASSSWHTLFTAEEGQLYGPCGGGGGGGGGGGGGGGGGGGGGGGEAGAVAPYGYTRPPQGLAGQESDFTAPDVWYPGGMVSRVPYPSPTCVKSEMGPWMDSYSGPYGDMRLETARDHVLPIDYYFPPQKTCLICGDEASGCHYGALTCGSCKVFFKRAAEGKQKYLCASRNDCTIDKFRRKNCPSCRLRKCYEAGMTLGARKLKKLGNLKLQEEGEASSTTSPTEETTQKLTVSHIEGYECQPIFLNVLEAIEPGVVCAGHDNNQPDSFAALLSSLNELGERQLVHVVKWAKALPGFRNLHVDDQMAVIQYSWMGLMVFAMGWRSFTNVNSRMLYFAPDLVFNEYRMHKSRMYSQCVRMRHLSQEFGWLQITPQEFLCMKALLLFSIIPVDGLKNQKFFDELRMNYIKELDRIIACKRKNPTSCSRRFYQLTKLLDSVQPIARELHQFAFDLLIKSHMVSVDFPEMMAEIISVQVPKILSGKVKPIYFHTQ
Description: LNCaP cells cultured in charcoal stripped FBS conditions were treated with DHT and the compounds as indicated. AR expression were visualized by immunofluorescent staining.
(§1) Next, the effects of the new AR/AKR1C3 inhibitors on AR signaling were studied. […] To further confirm the inhibitory role of the compounds in AR signaling, enzalutamide resistant C4-2B MDVR cells (which have enhanced expression of AR, AR variants, and AKR1C3) were treated with 5 μM compound 1, 5 μM compound 5, or a DMSO control. Total RNA was isolated assessed using RNAseq.

AR [4] = test: RNAseq of AR signaling genes in C4-2B MDVR cells; format: cell-based; conditions: 5 μM, vs DMSO control
Description: as §1

AKR1C3 [5] = target: T2, AKR1C3 (Homo sapiens, UniProt P42330); test: Ex vivo tumor based AKR1C3 enzyme assay (androstenedione conversion to testosterone); format: cell-based; conditions: ex vivo tumors, androstenedione 300 nmol/L, testosterone in supernatants
T2 sequence (P42330 1-323): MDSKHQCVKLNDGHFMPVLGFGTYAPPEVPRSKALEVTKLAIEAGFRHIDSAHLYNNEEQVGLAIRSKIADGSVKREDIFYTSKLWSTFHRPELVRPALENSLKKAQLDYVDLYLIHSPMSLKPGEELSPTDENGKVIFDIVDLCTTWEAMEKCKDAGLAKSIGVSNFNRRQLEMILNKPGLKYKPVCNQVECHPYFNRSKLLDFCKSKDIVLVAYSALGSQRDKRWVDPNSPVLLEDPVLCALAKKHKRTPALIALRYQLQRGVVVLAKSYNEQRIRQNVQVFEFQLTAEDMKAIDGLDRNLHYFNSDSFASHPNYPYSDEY
Description: AKR1C3 plays a crucial role in the synthesis of testosterone, by catalyzing the conversion of the adrenal androgens dehydroepiandrosterone (DHEA) and androstenedione (AD) into testosterone. To determine the effects of compound 1 on inhibition of AKR1C3 enzymatic activity an ex vivo tumor based AKR1C3 enzyme assay was conducted. LUCaP35CX tumors, which express high levels of AKR1C3, were digested with 0.1% protease and cultured in medium supplemented with 10% heat-inactivated charcoal-dextran-stripped FBS. After overnight incubation, androstenedione (300 nmol/L) was added with or without compound 1. The supernatants were collected to measure testosterone.

VCaP tumors = test: VCaP tumor model in intact SCID mice; format: in vivo; conditions: 20 mg/kg I.P. 5 days a week for 3 weeks
Description: Next the effects of compound 1 in vivo were studied in two separate models. First, intact SCID mice were injected with resistant prostate cancer VCaP cells suspended in matrigel. Once tumors were palpable, mice were divided into two groups: control or 20 mg/kg compound 1 administered I.P. 5 days a week for 3 weeks. Tumor volumes were measured twice weekly and mouse weights were monitored. At the end of treatment, tumors and serum were collected for assessment.

C4-2B MDVR cells [6] = test: RNAseq of genes associated with cancer cell proliferation and survival in C4-2B MDVR cells; format: cell-based; conditions: 5 μM, vs DMSO control
Description: In addition, the effect of the compounds on the expression of genes involved in cancer was studied. Enzalutamide resistant C4-2B MDVR cells were treated with 5 μM of compound 1, 2, 5, or 8, or DMSO control.

AKR1C3 [7] = target: T2, AKR1C3; test: Aldo-Keto Reductase (AKR) Activity Assay Kit (Colorimetric) in LNCaP-AKR1C3 cells; format: cell-based; design: expressed in transfected cells; host or cells: LNCaP-AKR1C3; conditions: 48 hrs
Description: To examine whether compound 1 and compound 2 are useful in inhibiting AKR1C3 activity, LNCaP-AKR1C3 were treated with either compound 1 or compound 2 for 48 hrs. AKR1C3 enzymatic activity was determined by Aldo-Keto Reductase (AKR) Activity Assay Kit (Colorimetric), the results of which are shown in FIG. 2. Similarly, the inhibition of AKR1C3 activity was examined with varying doses of compound 1. LNCaP-AKR1C3 cells were treated with increasing doses of compound 1 for 48 hrs.

AR-V7 = test: RNAseq of AR-V7 signature genes in C4-2B MDVR cells; format: cell-based; conditions: 5 μM, vs DMSO control
Description: as §1

[8] = LuCaP35CR PDX, castrated SCID mice, 20 mg/kg I.P. 5 days a week for 3 weeks

| SMILES | intratumoral testosterone levels (LuCaP35CR tumors; [8]) | mouse body weight (LuCaP35CR tumors; [8]) | serum PSA (LuCaP35CR tumors; [8]) | tumor volume / tumor growth (LuCaP35CR tumors; LuCaP35CR PDX, castrated SCID mice, 20 mg/kg I.P. 5 days a week for 3 weeks, 20 mg/kg) | tolerability (LuCaP35CR tumors; conclusion from VCaP and LuCaP35CR mouse models, 20 mg/kg I.P.) | total cell number (cell growth), increasing doses [1] | total cell number (cell growth) (C4-2B MDVR cells [2]) | total cell number (cell growth), increasing doses (C4-2B MDVR cells [2]; increasing doses) | AR nuclear translocation / DHT-stimulated AR nuclear expression (AR [3]) | expression of genes associated with AR signaling (AR activity signature genes) (AR [4]) | androstenedione conversion to testosterone (AKR1C3 [5]) | serum PSA (VCaP tumors; end of treatment) | mouse body weight (VCaP tumors; vs control) | tumor volume / tumor growth (VCaP tumors; vs control, 20 mg/kg) | expression of genes associated with cancer cell proliferation and survival (C4-2B MDVR cells [6]) | AKR1C3 enzymatic activity (AKR1C3 [7]) | AKR1C3 enzymatic activity, increasing doses (AKR1C3 [7]; increasing doses) | expression of AR-V7 signature genes (AR-V7) |
| --- | --- | --- | --- | --- | --- | --- | --- | --- | --- | --- | --- | --- | --- | --- | --- | --- | --- | --- |
| O=C(Nc1cc(C(F)(F)F)cc(C(F)(F)F)c1)c1cc(Cc2ccccc2)ccc1O [compound 1, 5-benzyl-N-(3,5-bis(trifluoromethyl)phenyl)-2-hydroxybenzamide] | significantly reduced intratumoral testosterone levels | no effect on mouse body weight | reduced | significantly decreased tumor volumes; also recorded: inhibits LuCaP35CR tumor growth | well-tolerated | inhibited in dose dependent fashion | inhibit cell growth | inhibited in dose-dependent fashion | capable of inhibiting DHT-stimulated AR nuclear expression; also recorded: inhibit AR nuclear translocation | greatly reduced expression of genes associated with AR signaling; also recorded: inhibit AR activity signature genes | dose-dependent inhibition; also recorded: inhibits the conversion from androstenedione to testosterone | significantly decreased | no effect on mouse body weight | significantly decreased tumor volume; also recorded: inhibits VCaP tumor growth | greatly reduced expression of genes associated with cancer cell proliferation and survival; also recorded: inhibit genes associated with cancer cell proliferation and survival | inhibit AKR1C3 activity | inhibited in dose-dependent fashion | reduced expression of AR-V7 signature genes; also recorded: inhibit AR-V7 activity signature genes |
| COc1ccc(Cc2ccc(O)c(C(=O)Nc3cc(C(F)(F)F)cc(C(F)(F)F)c3)c2)cc1 [compound 5, N-(3,5-bis(trifluoromethyl)phenyl)-2-hydroxy-5-(4-methoxybenzyl)benzamide] | – | – | – | – | – | – | – | – | capable of inhibiting DHT-stimulated AR nuclear expression; also recorded: inhibit AR nuclear translocation | greatly reduced expression of genes associated with AR signaling; also recorded: inhibit AR activity signature genes | – | – | – | – | greatly reduced expression of genes associated with cancer cell proliferation and survival; also recorded: inhibit genes associated with cancer cell proliferation and survival | – | – | reduced expression of AR-V7 signature genes; also recorded: inhibit AR-V7 activity signature genes |
| COc1ccc(C(=O)c2ccc(O)c(C(=O)Nc3cc(C(F)(F)F)cc(C(F)(F)F)c3)c2)cc1 [compound 8, N-(3,5-Bis(trifluoromethyl)phenyl)-2-hydroxy-5-(4-methoxybenzoyl)benzamide] | – | – | – | – | – | – | – | – | – | – | – | – | – | – | greatly reduced expression of genes associated with cancer cell proliferation and survival; also recorded: inhibit genes associated with cancer cell proliferation and survival | – | – | – |
